Data on 24 compounds can be found in patent US20260232713A1, “PLECOMACROLIDE DERIVATIVES FOR MHC-I NEF DOWNMODULATION” (priority 2022, published 2026).

One data set concerns the target T1, V-ATPase (Homo sapiens, UniProt P27449).
T1 construct: endogenous in cells; host or cells: primary CD4+ T cells (HIV ΔGPE infected) from donor PBMCs
Put plainly: Lysosomal acidification (Lysotracker mean fluorescence intensity) as indicator of V-ATPase activity in primary CD4+ T cells. Format: cell-based. As for the experimental part: (§1) Inhibition of HIV-Nef was measured by assessing its capacity to downmodulate MHC-I HLA-A2 on the surface of primary CD4+ T cells 24-hours after treatment with each compound. V-ATPase inhibition was assessed at the same time point using lysosomal acidification as an indicator of V-ATPase activity. This was measured using a flow cytometric assay that quantified Lysotracker mean fluorescence intensity as previously described (Painter et al., 2020). Cell viability was measured at 24-hour and 72-hour time points using a previously described flow cytometric assay (Painter et al., 2020).
(§2) Anonymized leukocytes isolated by apheresis were obtained from New York Blood Center and peripheral blood mononuclear cells (PBMCs) were isolated by Ficoll-Paque Plus (17144002; GE Healthcare) centrifugation using SepMate tubes (85450; StemCell Technologies) according to the manufacturers protocol. […] Then, 20-24 hours post-PHA activation, 15 mL of R10/PHA medium is removed and replaced with 5 mL of R10+100u/mL Recombinant Human IL-2 (202|L010; R&D Systems). 48 hours after IL-2 stimulation, primary CD4^+ T cells were infected via spinoculation with previously described HIV ΔGPE construct.
(§3) 48 hours after spinoculation, cells were pooled and plated in flat bottom 96-well plate. […] Compounds were thawed at room temperature and diluted in R10 medium to 2× starting concentration.
(§4) All ΔGPE infected cells were collected 24 hours after treatment.
(§5) All statistical analyses were performed using GraphPad Prism software. Curves were generated using GraphPad Prism software using [Inhibitor] vs. response with variable slope (four parameters).

The nature of another data set: in vitro. Particulars: human. As to the method: as §1, §2, §3, §4
(§6) All Mock cells were collected 72 hours after treatment.
as §5

The next data set deals with primary CD4+ T cells. The data set can be described thus: in vitro. Particulars: for Viability:Nef (therapeutic window separating Nef IC50 and TC50): ratio TC50 to Nef IC50; for CC50: read-out: Viability (TC50), mock primary CD4+ T cells, 72 hours after treatment. As to the method: as §1, §2, §3, §4, §6, §5
[1] abbreviates: Lysotracker Red, ΔGPE infected primary CD4+ T cells, 24 hours after treatment, read-out: Lysotracker (V-ATPase IC50, lysosomal neutralization).

Several values for one entry are separate records, joined by “and”; a condition that tells them apart may be missing. Identical values can stand only once. Like-named read-outs stand apart in the source and are kept apart here.

T1 sequence (P27449 whole entry, looked up): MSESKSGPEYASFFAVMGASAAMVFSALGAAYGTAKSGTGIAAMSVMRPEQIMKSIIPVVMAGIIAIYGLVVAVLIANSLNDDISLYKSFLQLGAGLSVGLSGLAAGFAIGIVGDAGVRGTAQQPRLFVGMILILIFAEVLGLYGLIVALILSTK

On V-ATPase, `C/C=C/[C@H]1O[C@@](O)([C@@H](C)[C@H](O)[C@H](C)[C@H]2OC(=O)/C(OC)=C/C(C)=C/[C@@H](C)[C@@H](O)[C@@H](CC)[C@@H](O)[C@H](C)C/C(C)=C/C=C/[C@@H]2OC)C[C@@H](O[C@@H]2C[C@H](OC(C)=O)[C@@H](OC(N)=O)[C@H](C)O2)[C@@H]1C` [Compound 14, 3′-Acetyl CMA] showed an IC50 of 3.7 nM. In “in vitro”, this compound yielded a CC50 of 1.6 nM. The “Viability:Nef (therapeutic window separating Nef IC50 and TC50)” value (“Viability:Nef” below) in the data set with primary CD4+ T cells is 8.5 fold.

At V-ATPase, `CC=CC=CC1OC(O)(C(C)C(O)C(C)C2OC(=O)C(OC)=CC(C)=CC(C)C(O)C(C)CC(C)=CC=CC2OC)CC(OC2CC(O)C(O)C(C)O2)C1C` (stereo not drawn) [Compound S15, PC-766B, reference compound] gave a 50% inhibitory concentration (IC50) of 2.5 nM. Besides, in the data set “in vitro”, the CC50 was determined as 1.3 nM. In addition, in the data set on primary CD4+ T cells, the “Viability:Nef” value came to 1.1 fold.

At V-ATPase, `CO/C1=C\C(C)=C\[C@@H](C)[C@@H](O)[C@@H](C)C/C(C)=C/C=C/[C@H](OC)[C@@H]([C@@H](C)[C@@H](O)[C@H](C)[C@@]2(O)C[C@@H](OC(C)=O)[C@H](C)C(C(C)C)O2)OC1=O` (stereo partly drawn) [Compound S9] had an IC50 of 23 nM. The compound also had a CC50 in “in vitro” of 10 nM. The “Viability:Nef” value in the data set with primary CD4+ T cells stood at 2.4 fold.

For the compound `C/C=C/[C@H]1O[C@@H]([C@@H](C)[C@H](O)[C@H](C)[C@H]2OC(=O)/C(OC)=C/C(C)=C/[C@@H](C)[C@@H](O)[C@@H](CC)[C@@H](O)[C@H](C)C/C(C)=C/C=C/[C@@H]2OC)C[C@@H](O[C@@H]2C[C@H](O)[C@@H](O)[C@H](C)O2)[C@@H]1C` [Compound S62, 21-Deoxy CMC], the IC50 at V-ATPase worked out at 6 nM. For the same compound, the CC50 in “in vitro” stood at 2 nM. In addition, in the data set on primary CD4+ T cells, the “Viability:Nef” value worked out at 1.8 fold.

`C/C=C/[C@H]1O[C@@](O)([C@@H](C)[C@H](O)[C@H](C)[C@H]2OC(=O)/C(OC)=C/C(C)=C/[C@@H](C)[C@@H](O)[C@@H](C)[C@@H](O)[C@H](C)C/C(C)=C/C=C/[C@@H]2OC)C[C@@H](O)[C@@H]1C` [Compound 7, Concanamycin X] showed an IC50 on V-ATPase of 38 nM. The compound further had a CC50 in “in vitro” of 14 nM.

At V-ATPase, `C/C=C/[C@H]1O[C@@](O)([C@@H](C)[C@H](O)[C@H](C)[C@H]2OC(=O)/C(OC)=C/C(C)=C/[C@@H](C)[C@@H](O)[C@@H](CC)[C@@H](O)[C@H](C)C/C(C)=C/C=C/[C@@H]2OC)C[C@@H](OC(C)=O)[C@@H]1C` [Compound S50, 23-Acetyl CMF] registered an IC50 of 6.1 nM. Also, the CC50 in the data set “in vitro” worked out at 6.1 nM. Moreover, the “Viability:Nef” value in the data set with primary CD4+ T cells is 5.8 fold.

Take “Des-tylactone [Compound S47, reference compound]”: the IC50 on V-ATPase (setting [1]) is > 1000 nM. Further, the CC50 in the data set on primary CD4+ T cells was > 1000 nM.

As for `CC[C@H]1OC(=O)[C@H](C)[C@@H](O)[C@@H](C)C[C@@H](C)C(=O)/C=C/[C@H]1C` [10-deoxymethynolide, reference compound], the IC50 on V-ATPase (setting [1]) came out at 1720 nM. Besides, the CC50 at 72 h in “in vitro” was 140 nM. In the data set with primary CD4+ T cells, the “Viability:Nef” value worked out at 0.39 fold.

Regarding `C/C=C/[C@H]1O[C@@](O)([C@@H](C)[C@H](O)[C@H](C)[C@H]2OC(=O)/C(OC)=C/C(C)=C/[C@@H](C)[C@@H](O)[C@@H](C)[C@@H](O)[C@H](C)C/C(C)=C/C=C/[C@@H]2OC)C[C@@H](O[C@@H]2C[C@H](OC(=O)CCCCCCCC)[C@@H](OC(N)=O)[C@H](C)O2)[C@@H]1C` [Compound 11, 3-nonanoate Concanamycin B], it took 170 nM to reach half-maximal inhibition against V-ATPase (IC50). The compound further had a CC50 in “in vitro” of 36 nM. In addition, in the data set with primary CD4+ T cells, the “Viability:Nef” value is on record as 4.3 fold.

`CO/C1=C\C(C)=C\[C@@H](C)[C@@H](O)[C@@H](C)C/C(C)=C/C=C/[C@H](OC)[C@@H]([C@@H](C)[C@@H](O)[C@H](C)[C@@]2(O)C[C@@H](OC(=O)c3ccccc3)[C@H](C)[C@@H](C(C)C)O2)OC1=O` [Compound S13] returned a concentration for half-maximal inhibition (IC50) on V-ATPase of 140 nM. Further, the CC50 in the data set “in vitro” is 130 nM.

`CO/C1=C\C(C)=C\[C@@H](C)[C@@H](O)[C@@H](C)C/C(C)=C/C=C/[C@H](OC)[C@@H]([C@@H](C)[C@@H](O)[C@H](C)[C@H]2C[C@@H](OC)[C@H](C)[C@@H](C(C)C)O2)OC1=O` [Compound S6] had a half-maximal inhibitory concentration (IC50) against V-ATPase of 52 nM. Besides, in “in vitro”, the CC50 amounted to 28 nM. In addition, the “Viability:Nef” value with primary CD4+ T cells is given as 1.4 fold.

Regarding `C=CC(C)C(OC(=O)[C@@H](C)[C@H](O)[C@H](C)[C@H]1OC(=O)/C(OC)=C/C(C)=C/[C@@H](C)[C@@H](O)[C@@H](C)C/C(C)=C/C=C/[C@@H]1OC)C(C)C` (stereo partly drawn) [Compound S8], at V-ATPase, the IC50 was > 1000 nM. The compound further registered a CC50 in “in vitro” of 520 nM.

On V-ATPase, `CC=CC1OC(O)(C(C)C(O)C(C)C2OC(=O)C(OC)=CC(C)=CC(C)C(O)C(C)C(O)C(C)CC(C)=CC=CC2OC)CC(OC2CC(O)C(OC(N)=O)C(C)O2)C1C` (stereo not drawn) [Compound 4, concanamycin B, reference compound] displayed a 50% inhibitory concentration (IC50) of 26 nM. This compound displayed a CC50 in the data set “in vitro” of 7 nM. Also, in the data set with primary CD4+ T cells, the “Viability:Nef” value is 5 fold and 5.5 fold.

At V-ATPase, `CCCCCCCCC(=O)O[C@@H]1C[C@](O)([C@@H](C)[C@H](O)[C@H](C)[C@H]2OC(=O)/C(OC)=C/C(C)=C/[C@@H](C)[C@@H](O)[C@@H](C)C/C(C)=C/C=C/[C@@H]2OC)O[C@H](C(C)C)[C@H]1C` [Compound S11] returned an IC50 of 150 nM. This compound also showed a CC50 in “in vitro” of 140 nM. The “Viability:Nef” value in the data set with primary CD4+ T cells is reported as 1.1 fold.

As to “23-OH-tylactone [Compound S46, reference compound]”, on V-ATPase (setting [1]), the IC50 is > 1000 nM. In addition, in the data set with primary CD4+ T cells, the CC50 is > 1000 nM.

On V-ATPase, `COC1=CC(C)=CC(C)C(O)C(C)CC(C)=CC=CC(OC)C(C(C)C(O)C(C)C2(O)CC(OC3OC(C)C(O)C(O)C3OC)C(C)C(C(C)C)O2)OC1=O` (stereo not drawn) [Compound S14, Leucanicidin, reference compound] showed an IC50 of 2.5 nM. The same compound returned a CC50 in the data set “in vitro” of 1.4 nM. Besides, in the data set with primary CD4+ T cells, the “Viability:Nef” value was 1.3 fold.

`C/C=C/[C@H]1O[C@@](O)([C@@H](C)[C@H](O)[C@H](C)[C@H]2OC(=O)/C(OC)=C/C(C)=C/[C@@H](C)[C@@H](O)[C@@H](CC)[C@@H](O)[C@H](C)C/C(C)=C/C=C/[C@@H]2OC)C[C@@H](O)[C@@H]1C` [Compound 6, Concanamycin F]: the concentration for half-maximal inhibition (IC50) against V-ATPase was found to be 5.8 nM. In the data set “in vitro”, this compound yielded a CC50 of 2.9 nM.

Turning to `COc1cc2c(O)c3c(c(-c4ccc5c(c4)OCO5)c2cc1OC)C(=O)OC3` [Compound S1, Diphyllin, reference compound], at V-ATPase (setting [1]), the IC50 is > 1000 nM. For the same compound, the CC50 at 72 h in the data set “in vitro” is > 1000 nM.

For the compound `CC[C@H]1OC(=O)[C@H](C)[C@@H](O[C@H]2C[C@@](C)(OC)[C@@H](O)[C@H](C)O2)[C@H](C)[C@@H](O[C@@H]2O[C@H](C)C[C@H](N(C)C)[C@H]2O)[C@](C)(O)C[C@@H](C)C(=O)[C@H](C)[C@@H](O)[C@H]1C` [Compound S32, Erythromycin B, reference compound], the IC50 at V-ATPase (setting [1]) was > 1000 nM. Besides, in the data set “in vitro”, the CC50 at 72 h is > 1000 nM.

Turning to `CC1=CC[C@H]2O[C@]1(C)O[C@H]([C@H](C)/C=C(C)/C=C/C(O)=C1/C(=O)CNC1=O)[C@H]2C` [Tirandamycin C, reference compound], the IC50 against V-ATPase was > 1000 nM. Moreover, the CC50 in “in vitro” was > 1000 nM.

As for `C/C=C/[C@H]1O[C@@](O)([C@@H](C)[C@H](O)[C@H](C)[C@H]2OC(=O)/C(OC)=C/C(C)=C/[C@@H](C)[C@@H](O)[C@@H](CC)[C@@H](O)[C@H](C)C/C(C)=C/C=C/[C@@H]2OC)C[C@@H](O[C@H]2C[C@@H](O)[C@H](O)[C@@H](C)O2)[C@@H]1C` [Compound 5, concanamycin C, reference compound], on V-ATPase (setting [1]), the IC50 was 3.7 nM. For the same compound, in the data set on primary CD4+ T cells, the “Viability:Nef” value amounted to 2.3 fold; the CC50 came to 1.3 nM.

As for `CC[C@H]1OC(=O)[C@H](C)C(=O)[C@H](C)[C@@H](O[C@@H]2O[C@H](C)C[C@H](N(C)C)[C@H]2O)[C@@H](C)C[C@@H](C)C(=O)/C=C/[C@H]1C` [Compound S33, Narbomycin, reference compound], the IC50 at V-ATPase (setting [1]) is > 1000 nM. Besides, the CC50 at 72 h in “in vitro” is > 1000 nM.

On to `CCC1OC(=O)C(C)C(OC2OC(C)CC(N(C)C)C2O)C(C)CC(C)C(=O)C=CC1C` (stereo not drawn) [Compound S30, YC-17, reference compound], for which the IC50 on V-ATPase (setting [1]) is > 1000 nM. In addition, the CC50 at 72 h in the data set “in vitro” was > 1000 nM.

Consider `CO[C@H]1/C=C/O[C@@]2(C)Oc3c(C)c(O)c4c(O)c(c(/C=N/N5CCN(C)CC5)c(O)c4c3C2=O)NC(=O)/C(C)=C\C=C\[C@H](C)[C@H](O)[C@@H](C)[C@@H](O)[C@@H](C)[C@H](OC(C)=O)[C@@H]1C` [Compound S26, Rifampicin, reference compound], for which, at V-ATPase (setting [1]), the half-inhibitory concentration (IC50) is > 1000 nM. For the same compound, the CC50 at 72 h in the data set “in vitro” was > 1000 nM.

One may read the IC50 as the concentration at which inhibition is half-maximal.
